We go through 1 compound from publication PMC8298522 (Scientific Reports, 2021).

The assay deals with insulin-positive and insulin-negative pancreatic tumors. The format is in vivo. The settings on record: [^68Ga]DOTATOC PET/CT, scan 30 min after injection.

Procedure: PET scans were performed after 30 min of injection of the labeled substance via tail vein (10 MBq/mouse) under 2.0% isoflurane anesthesia using a Triumph LabPET12/SPECT4/CT (TriFoil Imaging Inc., Chatsworth, CA, USA)[41].
After completion of the PET/CT procedures, mice were sacrificed by cervical dislocation, followed by immediate resection of the pancreas. Tissues were spread on filter paper and immediately fixed in 10% formalin at 4 °C. For the analysis of pancreatic tumors, serial formalin-fixed paraffin-embedded sections (4-μm thickness) were stained with anti-insulin and anti-glucagon antibody, as previously reported[39]. Briefly, primary rabbit polyclonal antibody was used for insulin detection at an antibody dilution of 1:100 (Cat# sc-9168; Santa Cruz Biotechnology, USA) and a mouse monoclonal antibody glucagon detection at an antibody dilution of 1:100 (Cat# ab10988; Abcam, USA). The secondary antibodies utilized for the assay were Alexa Fluor 488 goat anti-rabbit antibody at 1:200 dilution (Cat# A-11008; Thermo Fisher Scientific, USA) and Alexa Fluor 546 goat anti-mouse antibody at 1:200 dilution (Cat# A-11030; Thermo Fisher Scientific, USA), respectively. The slides were prepared for analyses under a fluorescence microscope (BZ-X700; Keyence, Osaka, Japan).

With `C[C@@H](O)[C@@H]1NC(=O)[C@H](CCCCN)NC(=O)[C@@H](Cc2c[nH]c3ccccc23)NC(=O)[C@H](Cc2ccc(O)cc2)NC(=O)[C@@H](NC(=O)[C@@H](Cc2ccccc2)NC(=O)CN2CCN(CC(=O)[O-])CCN(CC(=O)[O-])CCN(CC(=O)[O-])CC2)CSSC[C@@H](C(=O)N[C@H](CO)[C@@H](C)O)NC1=O.[68Ga+3]` [[^68Ga]DOTATOC, ^68Ga-labeled 1,4,7,10-tetraazacyclododecane-N,N′,N″,N″-tetraacetic acid-d-Phe^1-Tyr^3-octreotide], the “Specificity for detecting insulin-positive tumors” value was 0%.
